Source: patent US5041238A, “o,o'-Bridged oligophenylene laser dyes, dyestuff lasers and methods of lasing therewith” (Exciton Chemical Company, priority 1988, dated 1991)
Blank lines part the entries; values can stand above or below the compound they belong to.

Legend:
[1] = Solubilities of o,o'-bridged oligophenylenes at 21° C. in laser solvents; format: physicochemical; details: comparison in laser solvents
Experimental: SOLUBILITIES OF o,o'-BRIDGED OLIGOPHENYLENES AT 21° C.

[2] = Fluorescence emission spectrum (Perkin-Elmer MPF-44A); format: physicochemical; details: for Fluorescence peak 1, intensity / Fluorescence peak 1, wavelength / Fluorescence peak 2, intensity / Fluorescence peak 2, wavelength / Fluorescence emission peak 1, intensity / Fluorescence emission peak 1, wavelength / Fluorescence emission peak 2, intensity / Fluorescence emission peak 2, wavelength: slits 2 nm; for Fluorescence emission peak 1, intensity / Fluorescence emission peak 1, wavelength / Fluorescence emission peak 2, intensity / Fluorescence emission peak 2, wavelength: excitation 265 nm
Source text: (§1) The fluorescence emission spectrum for the dye 9,9-dipropylfluorene as illustrated in FIG. 1 was detected on a Perkin-Elmer MPF-44A, the slits were set at 2 nm and the excitation light was at 265 nm. The Fluorescence Quantum Efficiency (FQE) was about the same as that of fluorene - 55%; and the fluorescence emission peaks at 306 nm(intensity 86) and 316 nm(intensity 67) were also similar to those of fluorene [the fluorescence emission spectrum for fluorene as illustrated in FIG. 5 was also detected on a Perkin-Elmer MPF-44A, the slits were set at 2 nm and the excitation light was at 265 nm and the fluorescence emission peaks for fluorene are at 303 nm(intensity 93) and 311 nm(intensity 73)].
This dye had two fluorescence peaks of almost equal intensity at 360 nm(intensity 33) and 378 nm(intensity 28) as illustrated in FIG. 2. […] The fluorescence emission spectrum of the dye 9,9,9',9'-tetrapropyl-2,2'-bifluorene was detected on a Perkin-Elmer MPF-44A, the slits were set at 2 nm and the excitation light was at 331 nm.
(§2) This dye had fluorescence peaks at 324 nm(intensity 90) and 338 nm(intensity 76) and a reported fluorescence quantum yield of 100% in cyclohexane as illustrated in FIG. 3. […] The fluorescence emission spectrum for the dye 3-phenyldibenzofuran as illustrated in FIG. 3 was detected on a Perkin-Elmer MPF-44A, the slits were set at 2 nm and the excitation light was at 301 nm.
The dye, 3,3'-bi(dibenzofuran), was prepared in accordance with the process disclosed in H. O. Wirth, G. Waese and W. Kern: Synthese Und Eigenschaften Von: Oxydo-p-oligophenylenen. Makromol. Chem. 86: 139(1965) which is incorporated herein in its entirety by reference, and was purified by extraction from Brockmann Activity I alumina with chloroform in an Ace-Kauffman column to give a white solid, mp 249.5°-250.5° C. (lit.mp 252.5° C.). This dye had two fluorescence peaks of almost equal intensity at 353 nm(intensity 47) and 369 nm(intensity 30) in cyclohexane as illustrated in FIG. 4.

[3] = Fluorescence quantum efficiency / quantum yield; format: physicochemical
Source text: as §1, §2

[4] = cyclohexane; cited from earlier work
[5] = Violet fluorescence in alcohols; format: physicochemical
Experimental: The dye, 9,9'-diethyl-2,2'-bicarbazole, was prepared from the above intermediate as follows. To a mixture of 1.10 g (4 mMol) of 2-bromo-9-ethylcarbazole and 0.096 g of cut magnesium ribbon in 4 ml of refluxing ether was added 50 microliters of 1,2-dibromoethane. Refluxing was continued for 18 hrs. The solution was cooled and 386 microliters (0.455 g) of cis-1,4-dichloro-2-butene was added. As the solution was returned to reflux, a precipate appeared. After three hours the mixture was filtered. The solid was recrystallized from 2-methoxyethanol with a hot filtration to give 0.124 g (12% of theory) of product, mp 239°-40° C.

SMILES: c1ccc2c(c1)oc1cc(-c3ccc4c(c3)oc3ccccc34)ccc12 [3,3'-bi(dibenzofuran)]
- Solubility compared with another dye (words) [1]: greater than that of 2,2'-bifluorene
- Fluorescence emission spectrum compared with dye of Example 2 [2]: almost superimposable on that of the dye discussed in Example 2
- Fluorescence peak 1, intensity ([2]; cyclohexane, excitation 323 nm): 47
- Fluorescence peak 1, wavelength ([2]; cyclohexane, excitation 323 nm): 353 nm
- Fluorescence peak 2, intensity ([2]; cyclohexane, excitation 323 nm): 30
- Fluorescence peak 2, wavelength ([2]; cyclohexane, excitation 323 nm): 369 nm

- FQE in methanol compared with cyclohexane [3]: the same in methanol as in cyclohexane
- Solubility compared with another dye (words) [1]: much greater than that of p-terphenyl
- Fluorescence peak 1, intensity ([2]; cyclohexane, excitation 301 nm): 90
- Fluorescence peak 1, wavelength ([2]; cyclohexane, excitation 301 nm): 324 nm
- Fluorescence peak 2, intensity ([2]; cyclohexane, excitation 301 nm): 76
- Fluorescence peak 2, wavelength ([2]; cyclohexane, excitation 301 nm): 338 nm
SMILES: c1ccc(-c2ccc3c(c2)oc2ccccc23)cc1 [3-phenyldibenzofuran]
- Solubility compared with another dye (words) ([1]; listed as 3phenyldibenzofuran): much more soluble in methanol, 50% ethanol, 95% ethanol and absolute
- Fluorescence quantum yield (reported) [4]: 100%

SMILES: CCn1c2ccccc2c2ccc(-c3ccc4c5ccccc5n(CC)c4c3)cc21 [9,9'-diethyl-2,2'-bicarbazole]
- Violet fluorescence in alcohols compared with compounds of Examples 2 and 4 [5]: brighter violet fluorescence in alcohols than the compounds of Examples 2 and 4

- Fluorescence peak 1, intensity ([2]; excitation 331 nm): 33
- Fluorescence peak 1, wavelength ([2]; excitation 331 nm): 360 nm
- Fluorescence peak 2, intensity ([2]; excitation 331 nm): 28
- Fluorescence peak 2, wavelength ([2]; excitation 331 nm): 378 nm
SMILES: CCCC1(CCC)c2ccccc2-c2ccc(-c3ccc4c(c3)C(CCC)(CCC)c3ccccc3-4)cc21 [9,9,9',9'-tetrapropyl-2,2'-bifluorene]
- Solubility compared with another dye (words) [1]: more soluble than 2,2'-bifluorene in solvents

- Fluorescence emission peak 1, intensity [2]: 86
- Fluorescence emission peak 1, wavelength [2]: 306 nm
- Fluorescence emission peak 2, intensity [2]: 67
- Fluorescence emission peak 2, wavelength [2]: 316 nm
SMILES: CCCC1(CCC)c2ccccc2-c2ccccc21 [9,9-dipropylfluorene]

- Fluorescence emission peak 1, intensity [2]: 93
- Fluorescence emission peak 1, wavelength [2]: 303 nm
- Fluorescence emission peak 2, intensity [2]: 73
- Fluorescence emission peak 2, wavelength [2]: 311 nm
SMILES: c1ccc2c(c1)Cc1ccccc1-2 [fluorene, reference compound]
